Literature values as cited in US20200222353A1, “Ketone ester and ketone salt compositions and methods for using the same” (priority 2019, published 2020).

Tests used:
[1] = in vivo
[2] = compared with D-BHB

Row | SMILES | crossing of the blood-brain barrier (BBB) [1] | breakdown in the body and use for energy [2]
1 | C[C@@H](O)CC(=O)O [D-BHB, (3R)-3-hydroxybutanoic acid] | cross the blood-brain barrier | –
2 | C[C@H](O)CC(=O)O [L-BHB, (3 S)-3-hydroxybutanoic acid] | – | not to be broken down in the body and used for energy as quickly as D-BHB
